# Experimental data from patent US20180066031A1, “ENZYMATICALLY-CLEAVABLE PEPTIDE AMPHIPHILES” (The University of Chicago, priority 2016, published 2018).
# Molecular target: T1, Recombinant human liver cathepsin-B (Homo sapiens, UniProt P07858)
# T1 construct: purchased Sigma Aldrich
# Assay: Cathepsin-B cleavage testing of peptide-AMC substrates
# Type: biochemical
# Settings: for AMC fluorescence intensity change over time following addition of catB: 1 mM peptide in activation buffer pH 5, emission 440 nm
# Method: Peptide-AMC: Recombinant human liver cathepsin-B (Sigma Aldrich) was used for the in vitro experiments. 0.25 μM DTT used in 0.25 μM HEPES in PBS (pH 5) as activation buffer. Peptides were dissolved in activation buffer to a final concentration as 1 mM. 0.5 μL of catB enzyme or vehicle control was added into the peptide solution. Plate reader analysis with Tecan Infinite M200 PRO plate reader (Mannedorf, Switzerland) with triplicates of each sample were performed in 96 well plates. The intensity of the excited dye at 388 nm was measured at 440 nm. Dual dye-labeled peptide on resin: CatB and activation buffer were prepared as described above. Dye-labeled peptides were again left on the resin. Resin was washed with methanol, dried in a vacuum overnight, and then immersed in PBS (pH 7.4) for 1 hour at 37° C. PBS was then drained followed by addition of 1 mL activation buffer and 5 μL of catB for 100 mg of resin. Control testing was performed in the same solution without the addition of catB. Supernatant was collected after 3 hours and 24 hours. The florescence intensity of triplicates of each sample was measured with plate reader FAM (λexc=485 nm, λem=535 nm) and Tamra (λexc=520 nm, λem=620 nm).
# A variety of enzyme-cleavable peptide sequences used in antibody-drug and peptide-drug conjugates were tested for efficacy in the systems herein (Ref. B35, B40-B43; incorporated by reference in their entireties).
# The experimentally cleavable VC-PABA sequence and a control, non-cleavable triple glycine (GGG) linker, were conjugated to a 7-amino-4-methylcoumarin (AMC) dye, useful in studying protease activity and specificity (VC-PABA-AMC and GGG-AMC) (FIGS. 9A and 9B) (Ref. B45; incorporated by reference in its entirety). The electron group of the AMC fluorophore is localized, and thus remains quenched, when linked to the VC-PABA or GGG peptide substrate. When the covalent bond between the peptide and AMC is cleaved, this group de-localizes resulting in fluorescence detected at 440 nm (excitation: 348 nm) allowing for real-time measurement of enzyme/substrate kinetics. […]
substance,measurement,setting,value
"Glycine-Glycine-Glycine (GGG)-AMC [GGG-AMC, reference compound]",AMC fluorescence intensity change over time following addition of catB,,Neither GGG-AMC or GG-PABA-AMC showed any change in fluorophore intensity
valine-citrulline [VC],catB cleavage efficacy among tested enzyme-cleavable peptide sequences,comparison of linker sequences,fastest and most complete cleavage
Valine-Citrulline-Para(aminobenzoicacid) (VC-PABA)-AMC [VC-PABA-AMC],AMC fluorescence intensity change over time following addition of catB,,rapidly increased
